From patent US12617831B2 (UNIVERSITE D'ANGERS, priority 2019, dated 2026) come the findings set out here.

The test system of assay [1] is ovariectomy-induced bone loss in mice. Kind of assay: Cortical bone strength, 3-point bending at the midshaft femur, ovariectomized mice. Format: in vivo. As for the experimental part:
At 16 weeks of age, ALZET osmotic pumps (model number 2006, Durect Corp., Cupertino, CA) filled with the below saline or peptide were implanted subcutaneously between the two scapula under general anesthesia in 32 mice. Successful filling of pumps was verified by weighting the pump before and after filling. At 20 weeks of age, ALZET osmotic pumps were replaced by similar pumps to ensure delivery for four new weeks. […] This dose and regimen of zoledronic acid was equivalent to the 5 mg infusion approved for the treatment of post-menopausal osteoporosis in humans. At necropsy, femurs and second lumbar vertebras (L2) were cleaned of soft tissue and immediately frozen in a saline-soaked gauze at −20° C. Three-point-bending experiments were performed on femurs after thawing bones at 4° C. overnight. Femurs were loaded to failure in 3-point bending at 2 mm/min using a servohydraulic materials testing system (Instron 5942, Instron, Elancourt, France). The lower span length was of 10 mm. Femurs were oriented so the anterior quadrant was facing down and subjected to tensile loads. Load and displacement of the upper crosshead, which were digitally recorded at a sampling rate of 100 Hz, were measured using a 500 N load cell (Instron). Stiffness, ultimate load, yield load, post-yield displacement (PYD), and work-to-fracture were calculated from the load-displacement curves. PYD was defined as the displacement at failure minus the displacement at yield.

For assay [2] the test system is unchanged. Kind of assay: Trabecular bone strength, compression test of second lumbar vertebra, ovariectomized mice. Format: in vivo. Conditions: OVX mice, vs vehicle; GL-0001 25, GL-0007 25 and 100 nmoles/kg/day; zoledronic acid once 100 μg/kg. As for the experimental part: At 16 weeks of age, ALZET osmotic pumps (model number 2006, Durect Corp., Cupertino, CA) filled with the below saline or peptide were implanted subcutaneously between the two scapula under general anesthesia in 32 mice. Successful filling of pumps was verified by weighting the pump before and after filling. At 20 weeks of age, ALZET osmotic pumps were replaced by similar pumps to ensure delivery for four new weeks. […] This dose and regimen of zoledronic acid was equivalent to the 5 mg infusion approved for the treatment of post-menopausal osteoporosis in humans. Compression experiments were performed on L2. Briefly, vertebral bodies were carefully dissected and glued with cyanoacrylate glue on a Plexiglas plate and then incubated in saline at 4° C. until use the next day. L2 vertebral bodies were compressed to failure at a displacement rate of 1 mm/min using an Instron 5942 device. Load and displacement of the upper plateau were recorded at a sampling rate of 100 Hz. Maximum load and stiffness were computerized from load-displacement curves.

The test system is the same in assay [3]. The assay is described as follows: Bone matrix composition by FTIRI at the femur midshaft, ovariectomized mice. The class given is in vivo. Conditions: OVX mice, cortical bone femur, vs vehicle. How it is done:
At 16 weeks of age, ALZET osmotic pumps (model number 2006, Durect Corp., Cupertino, CA) filled with the below saline or peptide were implanted subcutaneously between the two scapula under general anesthesia in 32 mice. Successful filling of pumps was verified by weighting the pump before and after filling. At 20 weeks of age, ALZET osmotic pumps were replaced by similar pumps to ensure delivery for four new weeks. […] This dose and regimen of zoledronic acid was equivalent to the 5 mg infusion approved for the treatment of post-menopausal osteoporosis in humans. After three-point bending experiments, femurs were embedded undecalcified in pMMA at 4° C. One-micrometer cross-sectional sections of the midshaft femur were sandwiched between BaF2 optical windows and Fourier transform infrared imaging (FTIRI) assessment was performed in the posterior quadrant. FTIRI was performed with a vertex 70 spectrometer (Bruker, Ettlingen, Germany) interfaced with a Hyperion 3000 microscope and a focal plane array detector (64×64 pixels) covering a field of view of 180×180 μm. Nine field-of-view were stitched together to allow sufficient bone to be analyzed. Sections were scanned with a spectral resolution of 8 cm^-1 (spectral region 900-2000 cm^-1). Each spectrum was corrected for Mie scattering with the […]5 algorithm (kind gift of Prof Peter Gardner, University of Manchester, UK) prior to be subjected to pMMA subtraction. Evaluation of spectral images was done with a lab-made routine script in Matlab R2016b (The Mathworks, Natick, MA) as described in Aguado et al. (2017) Calcif Tissue Int 100:332-340. FTIR bone parameters ([…] (2012) Methods Mol Biol 816:517-525) calculated were: (1) phosphate/amide ratio (area of v1, v3 phosphate/area amide1); (2) acid phosphate content (intensity ratio 1127 cm^-1/1096 cm^-1) (Spevak et al. (2013) Calcif Tissue Int 92:418-428); (3) mineral crystallinity (intensity ratio 1030 cm^-1/1020 cm^-1), reflecting crystal size and perfection; […] (2001) J Bone Miner Res 16:893-900). For each of the compositional parameters, the mean and full width at half maximum of the pixel distribution (excluding the zero background values) were computed and represented as mean and heterogeneity.

Assay [4] has as its system MC3T3-E1 subclone 4 cells. Format: cell-based, murine.
Where [5] appears, read: OVX mice, 100 nmoles/kg/day, 8 weeks, vs vehicle.

Where two headings read alike, the source gives them in different places.

The compound `CC[C@H](C)[C@H](NC(=O)[C@H](CO)NC(=O)[C@H](CCSC)NC(=O)[C@H](CC(=O)O)NC(=O)[C@H](CO)NC(=O)CNC(=O)[C@H](Cc1ccccc1)NC(=O)[C@H](CO)NC(=O)CNC(=O)[C@H](CCC(=O)O)NC(=O)CNC(=O)[C@@H](N)Cc1c[nH]cn1)C(=O)N[C@@H](C)C(=O)N[C@@H](CC(C)C)C(=O)N[C@@H](CC(=O)O)C(=O)N[C@@H](CCCCN)C(=O)N[C@@H](CC(C)C)C(=O)N[C@@H](C)C(=O)N[C@@H](C)C(=O)N[C@@H](CCCNC(=N)N)C(=O)N[C@@H](CC(=O)O)C(=O)N[C@@H](Cc1ccccc1)C(=O)N[C@H](C(=O)N[C@@H](CC(N)=O)C(=O)N[C@@H](Cc1c[nH]c2ccccc12)C(=O)N[C@@H](CC(C)C)C(=O)N[C@@H](CC(C)C)C(=O)N[C@@H](CCC(N)=O)C(=O)N[C@H](C(=O)N[C@@H](CCCCN)C(=O)N[C@H](C(=O)N[C@H](C(=O)N[C@@H](CC(=O)O)C(=O)O)[C@@H](C)O)[C@@H](C)CC)[C@@H](C)O)C(C)C` [GL-0001] registered an increase in work-to-fracture in assay [1] (OVX mice, 25 nmoles/kg/day, 8 weeks, vs vehicle) of 37%. Besides, in assay [1] (mouse, in vivo), the “increase in post-yield displacement” value amounted to 70% and the “increase in ultimate displacement” value was 34%. Moreover, the “bone stiffness, compression of second lumbar vertebra” value in assay [2] is reported as “significantly reduced”. For the same compound, in assay [3] (25 nmoles/kg/day), the “increase in acid phosphate content heterogeneity” value turned out to be 21%, the “increase in collagen maturity heterogeneity” value came out at 28% and the “increase in mean collagen maturity” value came out at 10%. Also, the “Emax for dose-effect curves on collagen maturity” value in assay [4] (MC3T3-E1, day 14) is on record as 207.0%. Besides, in assay [4] (MC3T3-E1, day 14, mean ± SD of 5 individual experiments, read-out: EC50 for dose-effect curves on collagen maturity), the 50% effective concentration (EC50) was 0.0262 ± 0.0171 nM.

For `CC[C@H](C)[C@H](NC(=O)[C@H](CO)NC(=O)[C@H](Cc1ccccc1)NC(=O)[C@H](CC(=O)O)NC(=O)[C@H](CO)NC(=O)CNC(=O)[C@H](Cc1ccccc1)NC(=O)[C@H](CO)NC(=O)CNC(=O)[C@H](CCC(=O)O)NC(=O)CNC(=O)[C@@H](N)Cc1c[nH]cn1)C(=O)N[C@@H](C)C(=O)N[C@@H](CC(C)C)C(=O)N[C@@H](CC(=O)O)C(=O)N[C@@H](CCCCN)C(=O)N[C@@H](CC(C)C)C(=O)N[C@@H](C)C(=O)N[C@@H](C)C(=O)N[C@@H](CCCNC(=N)N)C(=O)N[C@@H](CC(=O)O)C(=O)N[C@@H](Cc1ccccc1)C(=O)N[C@H](C(=O)N[C@@H](CC(N)=O)C(=O)N[C@@H](Cc1c[nH]c2ccccc12)C(=O)N[C@@H](CC(C)C)C(=O)N[C@@H](CC(C)C)C(=O)N[C@@H](CCC(N)=O)C(=O)N[C@H](C(=O)N[C@@H](CCCCN)C(N)=O)[C@@H](C)O)C(C)C` [GL-0007], in assay [1] (setting [5]), the augmentation in work-to-fracture was determined as 33%, the “increase in post-yield displacement” value stood at 62% and the “increase in ultimate displacement” value is given as 33%. Also, the “bone stiffness, compression of second lumbar vertebra” value in assay [2] was “significantly reduced”. In assay [3] (100 nmoles/kg/day), the “augmentation of acid phosphate content heterogeneity” value is listed as 18%. The compound further had an EC50 in assay [4] of 0.0259 ± 0.0145 nM. Moreover, in assay [4] (MC3T3-E1, day 14), the “Emax for dose-effect curves on collagen maturity” value turned out to be 232.3%.

A word on the EC50: it is the concentration at which the effect is half-maximal.
